Key:
[1] = system: human melanoma cells (SK-MEL28, A2058, A101D); experiment: Oxygen consumption rate in melanoma cells, Seahorse; assay type: cell-based; details: 1-10 μM, monitored 2 h
Experimental: (§1) Oxygen consumption rate (OCR), a measure of OxPhos, and extracellular acidification rate (ECAR), a measure of lactate production by glycolysis, were measured using a Seahorse Xf^e96 Flux Analyzers (Seahorse Biosciences, North Billerica, Mass.). Cells were seeded in DMEM media in Seahorse 96-well tissue culture plates at a density of 5×10^3 cells/well and allowed to adhere for 24 h. Prior to the assay, the media was changed to unbuffered DMEM containing 25 mM glucose, 1 mM pyruvate and 1 mM glutamine, with 0.2% fatty acid/endotoxin-free BSA (w/v) (pH 7.4) and the cells were equilibrated for 30 min at 37° C. Test compounds were injected during the assay and OCR and ECAR were measured using 2-3 min measurement periods. […] OCR was measured throughout the different injections of the stressors and test compounds (indicated by arrows in the figures).
The importance of mitochondria as oxygen sensors as well as producers of ATP and ROS has recently become a focal point of cancer research. […] OCR was continuously monitored for 2 h. Mitochondria recoupler 6-KCH (200 μM) was added to the assay system prior to injection of COH-SR4 (5 μM) as shown by arrows and OCR of A101D cells were monitored (FIG. 37B). […]

[2] = system: isolated mouse liver mitochondria; experiment: Oxygen consumption rate in isolated liver mitochondria; details: increasing concentrations
Experimental: Mitochondria were isolated from the livers of 10 week old male C57BL/6 mice. Mice were euthanized by CO2 inhalation followed by cervical dislocation. Livers were removed, minced with scissors, and immediately placed in ˜10 volumes of ice-cold mitochondria isolation medium (250 mM sucrose, 10 mM Tris-HCl, 1 mM EGTA, 1% fatty acid/endotoxin-free BSA, pH 7.4). The presence of BSA in the medium allowed the endogenous free fatty acids to be chelated from the homogenate suspension. The tissues were homogenized using 25-30 strokes in Potter-Elvehjem tissue grinder. Following centrifugation at 800×g for 10 min at 4° C., the fats/lipids were carefully aspirated, and the remaining supernatant was filtered through sterile 0.40 micron nylon mesh membrane and centrifuged at 8,000×g for 10 min at 4° C. […] The mitochondrial protein concentration was determined by the DC Protein Assay kit (Bio-Rad, Hercules, Calif.) with BSA as a standard. […]
Isolated mouse liver mitochondria (2 μg/well or 5 μg/well) were seeded on Seahorse 96-well plate, and respiration (OCR) was measured on mitochondria respiring either on pyruvate (10 mM) and malate (2 mM) or succinate (10 mM) and rotenone (2 μM) using a Seahorse 96 Flux Analyzers according to Rogers et al (90).

A2058 cells = experiment: Mitochondrial membrane depolarization, TMRE; assay type: cell-based, human; details: 5 μM
Experimental: Cells (4×10^5/well in 6-well plates) cultured overnight were pre-incubated with the fluorescent indicator of MMP tetramethylrhodamine ester (TMRE, 200 nM) or DMSO control for 30 min at 37° C. in CO2 incubator. Cells were washed with pre-warmed normal DMEM media, and test compounds were added with fresh media for the indicated times. Cells were then trypsinized, collected, centrifuged for 5 min at 800×g, and washed once in pre-warmed PBS-0.2% BSA. Cells were then resuspended in the same buffer prior to flow cytometric analysis. A total of 30,000 cells were counted per sample and data was analyzed by Cyan ADP flow cytometer with excitation/emission of 488 nm/572 nm (Beckman Coulter, Inc., Brea, Calif.). For measurements of membrane potential in isolated mouse liver mitochondria, the organelles were pre-incubated with 200 nM TMRE in MASSRO buffer (MAS buffer supplemented with 10 mM succinate, 1 μM rotenone, and 1 μM oligomycin) for 20 min at 25° C. The mitochondria were centrifuged for 5 min at 3000×g and resuspended in MASSRO buffer. Mitochondria were then added to MASSRO buffer containing the indicated concentrations of COH-SR4, FCCP or DMSO vehicle control and incubated at room temperature for 15 min. […] TMRE fluorescence was measured with a microplate reader (Tecan Infinite M200 Pro, Tecan Group Ltd., Switzerland) using an excitation emission of 545ex/580em. […]

[3] = system: isolated mouse liver mitochondria; experiment: Mitochondrial swelling assay; details: potassium acetate buffer with valinomycin
Experimental: Mitochondrial swelling was measured in non-respiring mouse liver mitochondria incubated in buffered isotonic potassium acetate in the presence of valinomycin (24,25). […] Absorbance of the mitochondrial suspension before and after addition test compounds was measured every 10 seconds using a Varian Cary 300 spectrophotometer (Agilent Technologies, Santa Clara, Calif.). Swelling was recorded from the decrease in absorbance at 600 nm and expressed as percentage from initial reading after addition of mitochondria.
Mitochondrial membrane swelling was detected as decrease in absorbance at 600 nm following the addition of COH-SR4 or FCCP alone or in the presence of cysclosporin A (CSA, 1 μM) on isolated mouse liver mitochondria respiring on succinate (10 mM) in the presence of rotenone (1 μM) and valinomycin (5 μM) in potassium acetate buffer. […] Arrow indicates time of addition of test compounds into the mitochondria suspension.

A2058 p^0 cells = experiment: Oxygen consumption rate in mitochondrial DNA-depleted cells; assay type: cell-based, human; details: compared with wild-type A2058; data not shown
Experimental: as §1, with “periods. Similar sets of experiments were performed in the presence of the mitochondria recoupler agent 6-KCH or the mitochondrial permeability transition (MPT) pore blocker CSA, where each compound was injected into the assay media prior to COH-SR4 or FCCP injection.” for “periods.”
To verify that COH-SR4 acts directly on mitochondrial respiration, OCR in mitochondrial DNA-depleted (p^0) A2058 cells was measured, as well as freshly isolated mouse liver mitochondria and treated with either COH-SR4 or FCCP.

[4] = system: HepG2 liver carcinoma cells; experiment: Intracellular AMP:ATP ratio in HepG2; assay type: cell-based, human; details: 5 μM, 1 h
Experimental: ATP production from cells treated with test compounds were measured using the Luminescent ATP Detection Assay Kit. AMP, ATP and ADP were measured by UV-HPLC.
Total intracellular ATP production in cells treated with either 5 μM COH-SR4 or 5 μM FCCP was measured by bioluminescence assay and expressed as percentage of time-matched vehicle (DMSO) control (FIG. 84A). Intracellular AMP: ATP ratios increased in HepG2 liver carcinoma cells following 1 h treatment with either 5 μM COH-SR4 or 5 μM FCCP (FIG. 84B) and in liver of db/db mice treated with COH-SR4 (5 mg/kg B.W.) for 5 weeks (FIG. 84C). All data represented are mean±SEM, *P<0.05.

melanoma cells [5] = experiment: MTT assay, melanoma cell lines of various mutational status; assay type: cell-based; details: 48 h, regardless of mutational status; read-out: IC50 values across melanoma cell lines
Experimental: Cell density measurements were performed using a hemocytometer to count reproductive cells resistant to staining with trypan blue. Approximately 20,000 cells were plated into each well of 96-well flat-bottomed micro-titer plates. After 12 h or 24 h incubation at 37° C., medium containing either COH-SR4 (ranging 0-200 μM) or elesclomol (ranging 0-20 μM) were added to the cells. After 24 h, 48 h or 96 h incubation, 20 μL of 5 mg/mL MTT were introduced to each well and incubated for 2 h. The plates were centrifuged and medium was decanted. Cells were subsequently dissolved in 100 μl DMSO with gentle shaking for 2 h at room temperature, followed by measurement of OD570 (91).

melanoma cells [6] = experiment: Colony formation assay, melanoma cells (elesclomol); assay type: cell-based, human; details: 5 μM, compared to COH-SR4
Experimental: Cell survival was evaluated using a standard colony-forming assay. In total, 1×10^5 cells/mL were incubated with COH-SR4 (1.5 μM or 5 μM) or elesclomol (5 μM) for 24 h, and aliquots of 50 or 100 μL were added to 60 mm size petri dishes, containing 4 mL culture medium. After 7 or 10 days, adherent colonies were fixed, stained with 0.5% methylene blue for 30 min and colonies were counted using the Innotech Alpha Imager HP (91).

[7] = system: B16-F0 and A2058 melanoma cells; experiment: TUNEL apoptosis assay, melanoma; assay type: cell-based; details: 5 μM, 24 h
Experimental: For TUNEL assay, 1×10^5 cells were grown on the cover slips for ˜12 h followed by treatment with COH-SR4 (5 μM or 10 μM) or elesclomol (5 μM) for 24 h. Apoptosis was determined by the labeling of DNA fragments with terminal deoxynucleotidyl-transferase dUTP nick-end labeling (TUNEL) assay using Promega fluorescence apoptosis detection system, and examined using Zeiss LSM 510 META laser scanning fluorescence microscope with filters 520 and 620 nm according to the protocol described previously (91). Photographs taken at identical exposure at ×400 magnification are presented.

| Structure (SMILES) | oxygen consumption rate (OCR) [1] | OCR of mitochondria respiring on pyruvate and malate or succinate-rotenone [2] | mitochondrial membrane depolarization (TMRE fluorescence) (A2058 cells) | mitochondrial swelling (absorbance at 600 nm) [3] | OCR in mitochondrial DNA-depleted cells (A2058 p^0 cells) | intracellular AMP:ATP ratios [4] | IC50 (melanoma cells [5]) [µM] | colony forming ability of melanoma cells (melanoma cells [6]) | apoptosis (DNA fragmentation, TUNEL) [7] |
| --- | --- | --- | --- | --- | --- | --- | --- | --- | --- |
| N#CC(C#N)=NNc1ccc(OC(F)(F)F)cc1 [FCCP, reference compound] | caused an abrupt increase in OCR at the lower concentration and decreases OCR at higher (>3 μM) concentrations | dose-dependently increased OCR of mitochondria | induced mitochondrial membrane depolarization in a time-dependent manner | mitochondrial swelling was observed | failed to increase OCR | increased |  |  |  |
| CN(NC(=O)CC(=O)NN(C)C(=S)c1ccccc1)C(=S)c1ccccc1 [elesclomol, reference compound] |  |  |  |  |  |  | ≥ 5.8 | did not significantly affect the colony forming ability | not potent |

Reference: patent US9808434B2, “Compound for treating cancer and diabetes” (CITY OF HOPE, priority 2011, dated 2017)
